Columns and labels:
[1] = Cytotoxicity against human Huh-7 cells transfected with HCV subgenomic replicon for NS5B polymerase assessed as reduction in cell viability; type: toxicity, cell-based
[2] = Cmax in Sprague-Dawley rat at 3 mg/kg,po and measured after 72 hrs by LC/MS/MS analysis; type: ADME, organism-based; set-up: time 72 hrs, dose 3 mg/kg, route po; conditions: in vivo
[3] = AUC (0 to infinity) in Sprague-Dawley rat at 3 mg/kg,po and measured after 72 hrs by LC/MS/MS analysis; type: ADME, organism-based; set-up: time 72 hrs, dose 3 mg/kg, route po; conditions: in vivo
[4] = Unbound clearance in Sprague-Dawley rat at 1 mg/kg,iv and measured after 72 hrs by LC/MS/MS analysis; type: ADME, organism-based; conditions: in vivo
[5] = Half life in Sprague-Dawley rat at 3 mg/kg,po and measured after 72 hrs by LC/MS/MS analysis; type: ADME, organism-based; conditions: in vivo
[6] = Protein binding in rat plasma at 1 uM incubated for 6 hrs by LC-MS/MS based rapid equilibrium dialysis method; type: ADME, cell-free; conditions: read-out: PPB (converted)
[7] = Unbound AUC (0 to infinity) in Sprague-Dawley rat at 3 mg/kg,po and measured after 72 hrs by LC/MS/MS analysis; type: ADME, organism-based; conditions: in vivo
[8] = system: Hepatitis C virus; test: Antiviral activity against Hepatitis C virus subtype 1b infected in Huh-7 cells transfected with HCV subgenomic replicon for NS5B polymerase assessed as inhibition of viral replication measured upto 96 hrs by luciferase reporter gene assay; type: functional, organism-based, Hepacivirus hominis; conditions: for IC50: Huh-7, 96 h; for IC90: Huh-7, time <= 96 hrs
[9] = Oral bioavailability in Sprague-Dawley rat at 3 mg/kg and measured after 72 hrs by LC/MS/MS analysis; type: ADME, organism-based; conditions: in vivo
[10] = AUC (0 to infinity) in Sprague-Dawley rat at 1 mg/kg,iv and measured after 72 hrs by LC/MS/MS analysis; type: ADME, organism-based; set-up: time 72 hrs, dose 1 mg/kg, route iv; conditions: Sprague-Dawley, in vivo
[11] = Half life in Sprague-Dawley rat at 1 mg/kg,iv and measured after 72 hrs by LC/MS/MS analysis; type: ADME, organism-based; conditions: in vivo
[12] = Clearance in Sprague-Dawley rat at 1 mg/kg,iv and measured after 72 hrs by LC/MS/MS analysis; type: ADME, organism-based; conditions: in vivo
[13] = Unbound AUC (0 to infinity) in Sprague-Dawley rat at 1 mg/kg,iv and measured after 72 hrs by LC/MS/MS analysis; type: ADME, organism-based; conditions: in vivo
[14] = Volume of distribution at steady state in Sprague-Dawley rat at 1 mg/kg,iv and measured after 72 hrs by LC/MS/MS analysis; type: ADME, organism-based; conditions: in vivo, read-out: Vdss
[15] = system: Hepatitis C virus; test: Antiviral activity against Hepatitis C virus subtype 1b infected in Huh-7 cells transfected with HCV subgenomic replicon for NS5B polymerase assessed as inhibition of viral replication measured upto 96 hrs in presence of 40% of human serum by luciferase reporter gene assay; type: functional, organism-based, Hepacivirus hominis; conditions: Huh-7, 96 h
[16] = target: T1, PXR (Homo sapiens, UniProt O75469); test: Activation of human PXR expressed in human DPX2 co-expressing luciferase reporter gene assessed as maximum efficacy incubated for 24 hrs by luciferase assay relative to control; type: cell-based; conditions: DPX2 cells expressing human PXR and luciferase reporter gene
T1 sequence (O75469 whole entry): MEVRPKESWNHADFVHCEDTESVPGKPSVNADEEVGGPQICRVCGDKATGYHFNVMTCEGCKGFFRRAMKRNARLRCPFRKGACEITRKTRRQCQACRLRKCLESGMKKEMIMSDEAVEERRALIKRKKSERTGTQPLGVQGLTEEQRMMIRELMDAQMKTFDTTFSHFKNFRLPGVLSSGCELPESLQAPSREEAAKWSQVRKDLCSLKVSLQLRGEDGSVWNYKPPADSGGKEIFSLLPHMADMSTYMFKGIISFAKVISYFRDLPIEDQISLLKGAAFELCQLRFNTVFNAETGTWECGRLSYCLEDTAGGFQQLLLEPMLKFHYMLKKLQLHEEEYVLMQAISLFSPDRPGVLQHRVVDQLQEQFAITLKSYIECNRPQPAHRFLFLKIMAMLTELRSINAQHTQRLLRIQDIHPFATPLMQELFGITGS

[17] = target: T2, Nuclear receptor subfamily 1 group I member 2 (Homo sapiens, UniProt O75469); test: Activation of human PXR expressed in human DPX2 co-expressing luciferase reporter gene incubated for 24 hrs by luciferase assay; type: cell-based
T2 sequence (O75469 whole entry): T1 sequence (O75469 whole entry)

[18] = Protein binding in human plasma at 1 uM incubated for 6 hrs by LC-MS/MS based rapid equilibrium dialysis method; type: ADME, cell-free; conditions: read-out: PPB
[19] = Unbound AUC (0 to infinity) in Sprague-Dawley rat at 1.5 mg/kg,po and measured after 72 hrs by LC/MS/MS analysis; type: ADME, organism-based; conditions: in vivo
[20] = Oral bioavailability in Sprague-Dawley rat at 1.5 mg/kg and measured after 72 hrs by LC/MS/MS analysis; type: ADME, organism-based; conditions: in vivo
[21] = Half life in Sprague-Dawley rat at 1.5 mg/kg,po and measured after 72 hrs by LC/MS/MS analysis; type: ADME, organism-based; conditions: in vivo
[22] = Volume of distribution at steady state in Sprague-Dawley rat at 0.5 mg/kg,iv and measured after 72 hrs by LC/MS/MS analysis; type: ADME, organism-based; conditions: in vivo, read-out: Vdss
[23] = Half life in Sprague-Dawley rat at 0.5 mg/kg,iv and measured after 72 hrs by LC/MS/MS analysis; type: ADME, organism-based; conditions: in vivo
[24] = Unbound AUC (0 to infinity) in Sprague-Dawley rat at 0.5 mg/kg,iv and measured after 72 hrs by LC/MS/MS analysis; type: ADME, organism-based; conditions: in vivo
[25] = Microsomal stability in human liver microsomes assessed as parent compound remaining at 1 uM and measured after 30 mins in presence of NADPH by LC/MS/MS analysis; type: ADME, Microsome; conditions: 0.5 h
[26] = target: Cytochrome P450 2D6 (Homo sapiens, UniProt P10635); test: Inhibition of CYP2D6 in human liver microsomes incubated for 10 mins in presence of NADPH by LC/MS/MS analysis; type: ADME, Microsome
Cytochrome P450 2D6, sequence (P10635 whole entry): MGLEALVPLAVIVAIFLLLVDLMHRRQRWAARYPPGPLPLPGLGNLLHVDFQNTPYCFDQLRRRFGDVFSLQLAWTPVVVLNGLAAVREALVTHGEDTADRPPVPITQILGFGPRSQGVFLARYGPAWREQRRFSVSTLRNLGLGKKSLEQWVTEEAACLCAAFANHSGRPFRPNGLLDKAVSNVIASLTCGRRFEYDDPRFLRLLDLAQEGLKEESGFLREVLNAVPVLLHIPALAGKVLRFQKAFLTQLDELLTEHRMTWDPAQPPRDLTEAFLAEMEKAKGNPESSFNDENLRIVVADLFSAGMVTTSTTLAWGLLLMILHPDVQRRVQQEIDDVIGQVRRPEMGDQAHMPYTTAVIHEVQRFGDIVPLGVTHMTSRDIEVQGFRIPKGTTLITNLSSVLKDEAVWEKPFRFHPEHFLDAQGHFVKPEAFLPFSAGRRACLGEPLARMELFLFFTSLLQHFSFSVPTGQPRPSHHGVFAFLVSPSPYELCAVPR

[27] = Microsomal stability in rat liver microsomes assessed as parent compound remaining at 1 uM and measured after 30 mins in presence of NADPH by LC/MS/MS analysis; type: ADME, Microsome; conditions: 0.5 h
[28] = Unbound clearance in Sprague-Dawley rat at 0.5 mg/kg,iv and measured after 72 hrs by LC/MS/MS analysis; type: ADME, organism-based; conditions: in vivo
[29] = AUC (0 to infinity) in Sprague-Dawley rat at 1.5 mg/kg,po and measured after 72 hrs by LC/MS/MS analysis; type: ADME, organism-based; set-up: dose 1.5 mg/kg, time 72 hrs, route po; conditions: in vivo
[30] = target: Cytochrome P450 2C9 (Homo sapiens, UniProt P11712); test: Inhibition of CYP2C9 in human liver microsomes incubated for 10 mins in presence of NADPH by LC/MS/MS analysis; type: ADME, Microsome
Cytochrome P450 2C9, sequence (P11712 whole entry): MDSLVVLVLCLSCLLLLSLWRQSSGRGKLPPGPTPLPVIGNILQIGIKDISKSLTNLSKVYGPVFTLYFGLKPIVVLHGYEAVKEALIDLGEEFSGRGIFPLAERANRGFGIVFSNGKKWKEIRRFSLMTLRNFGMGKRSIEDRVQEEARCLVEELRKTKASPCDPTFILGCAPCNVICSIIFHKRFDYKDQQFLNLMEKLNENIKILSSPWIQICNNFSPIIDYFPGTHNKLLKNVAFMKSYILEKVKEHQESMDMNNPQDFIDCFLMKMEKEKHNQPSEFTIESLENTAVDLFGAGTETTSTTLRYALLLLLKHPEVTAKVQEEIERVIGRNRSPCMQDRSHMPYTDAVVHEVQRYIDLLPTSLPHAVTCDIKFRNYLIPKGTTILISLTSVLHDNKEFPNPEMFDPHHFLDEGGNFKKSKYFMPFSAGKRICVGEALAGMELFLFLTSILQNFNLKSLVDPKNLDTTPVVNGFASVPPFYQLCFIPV

[31] = target: Cytochrome P450 3A4 (Homo sapiens, UniProt P08684); test: Inhibition of CYP3A4 in human liver microsomes incubated for 10 mins in presence of NADPH by LC/MS/MS analysis; type: ADME, Microsome
Cytochrome P450 3A4, sequence (P08684 whole entry): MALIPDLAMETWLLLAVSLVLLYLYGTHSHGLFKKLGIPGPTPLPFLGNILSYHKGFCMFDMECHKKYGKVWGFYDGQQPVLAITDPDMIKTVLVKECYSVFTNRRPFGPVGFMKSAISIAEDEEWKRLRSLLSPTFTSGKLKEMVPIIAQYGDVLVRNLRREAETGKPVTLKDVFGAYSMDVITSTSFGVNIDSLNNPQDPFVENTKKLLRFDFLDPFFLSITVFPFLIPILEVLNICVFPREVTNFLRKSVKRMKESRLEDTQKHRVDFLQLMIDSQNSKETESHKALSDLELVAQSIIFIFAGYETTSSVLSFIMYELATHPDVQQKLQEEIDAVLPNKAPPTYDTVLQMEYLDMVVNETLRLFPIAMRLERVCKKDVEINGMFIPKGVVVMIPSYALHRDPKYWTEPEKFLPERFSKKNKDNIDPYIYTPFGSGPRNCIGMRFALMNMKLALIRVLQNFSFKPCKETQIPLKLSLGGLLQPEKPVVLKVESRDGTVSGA

[32] = target: T1, PXR; test: Activation of human PXR expressed in human DPX2 co-expressing luciferase reporter gene assessed as fold increase incubated for 24 hrs by luciferase assay relative to control; type: cell-based; conditions: DPX2 cells expressing human PXR and luciferase reporter gene, read-out: FC
[33] = AUC (0 to infinity) in Sprague-Dawley rat at 0.5 mg/kg,iv and measured after 72 hrs by LC/MS/MS analysis; type: ADME, organism-based; set-up: time 72 hrs, dose 0.5 mg/kg, route iv; conditions: in vivo
[34] = Cmax in Sprague-Dawley rat at 1.5 mg/kg,po and measured after 72 hrs by LC/MS/MS analysis; type: ADME, organism-based; set-up: dose 1.5 mg/kg, time 72 hrs, route po; conditions: in vivo

Row | SMILES | CC50 [1] | Cmax [2] | AUC(0-inf) [3] | CL free [4] | half-life [5] | fraction unbound at 6 h, 1 µM [6] | fAUC [7] | IC50 [8] | IC90 [8] | bioavailability [9] | AUC(0-inf) [10] | half-life [11] | clearance [12] | fAUC [13] | Vd [14] | IC50 [15] | Emax at 24 h [16] | EC50 [17] | fAUC [19] | bioavailability [20] | other results
1 | CN1CC[C@H](N(c2cc(C#CC(C)(C)C)sc2C(=O)O)C(=O)[C@H]2CC[C@H](C)CC2)C1=O | > 20000 nM | 119 ng/mL | 176 ng·h/mL | 3880 mL/min/kg | 4.66 h | 0.019 | 3.34 ng·h/mL | 4 nM | 13 nM | 26% | 229 ng·h/mL | 3.07 h | 73.7 mL/min/kg | 4.35 ng·h/mL | 6.04 L/kg | 40 nM |  |  |  |  | 
2 | CN1CCCC[C@@H](N(c2cc(C#CC(C)(C)C)sc2C(=O)O)C(=O)[C@H]2CC[C@H](C)CC2)C1=O | > 20000 nM | 589 ng/mL | 3530 ng·h/mL | 7950 mL/min/kg | 4.31 h | 0.002 | 7.06 ng·h/mL | 29 nM | 63 nM | 122% | 1130 ng·h/mL | 2.79 h | 15.9 mL/min/kg | 2.26 ng·h/mL | 1.05 L/kg | 156 nM | 16% | > 30000 nM |  |  | 
3 | CN1CCC[C@H](N(c2cc(C#CC(C)(C)C)sc2C(=O)O)C(=O)[C@H]2CC[C@H](C)CC2)C1=O | > 20000 nM |  |  |  |  | 0.011 |  | 3 nM | 8 nM |  |  |  |  |  |  | 24 nM | 63% | 17300 nM | 70.3 ng·h/mL | 24% | fraction unbound at 6 h, 1 µM [18]: 0.01; half-life [21]: 4.8 h; Vd [22]: 1.17 L/kg; half-life [23]: 6.68 h; fAUC [24]: 96.5 ng·h/mL; Stability [25]: Stable; IC50 [26]: > 30000 nM; Stability [27]: Stable; CL free [28]: 755 mL/min/kg; AUC(0-inf) [29]: 6390 ng·h/mL; IC50 [30]: > 30000 nM; IC50 [31]: > 30000 nM; fold induction at 24 h [32]: 15.1; AUC [33]: 8770 ng·h/mL; Cmax [34]: 751 ng/mL
4 | CN1CCC[C@@H](N(c2cc(C#CC(C)(C)C)sc2C(=O)O)C(=O)[C@H]2CC[C@H](C)CC2)C1=O | > 20000 nM |  |  |  |  | 0.0004 |  | 10 nM | 44 nM |  |  |  |  |  |  | 105 nM | 28% | 20400 nM | 9.76 ng·h/mL | 32% | half-life [21]: 6.13 h; Vd [22]: 0.221 L/kg; half-life [23]: 5.57 h; fAUC [24]: 10.2 ng·h/mL; CL free [28]: 2980 mL/min/kg; AUC(0-inf) [29]: 24400 ng·h/mL; fold induction at 24 h [32]: 7.3; AUC [33]: 25400 ng·h/mL; Cmax [34]: 2540 ng/mL
5 | CC(C)(C)C#Cc1cc(N(C(=O)[C@H]2CC[C@H](C)CC2)[C@H]2CC[C@H](O)CC2)c(C(=O)O)s1 [LOMIBUVIR] | > 20000 nM |  |  |  |  |  |  | 25 nM | 97 nM |  |  |  |  |  |  | 203 nM |  |  |  |  | 

Reference: ChEMBL document CHEMBL5260802, “Discovery of Novel Allosteric HCV NS5B Inhibitors. 2. Lactam-Containing Thiophene Carboxylates” (ACS Med Chem Lett, 2017)
